According to paper PMC7595966, “Scutellarin is Highly Likely to be Responsible for Drug-Drug Interactions Mediated by Hepatic Organic Anion-Transporting Polypeptide1B3” (Pharmaceutical Research, 2020):

Legend:
hOATP1B3 = target: T1, hOATP1B3 (Homo sapiens, UniProt Q9NPD5); assay: cell-based
T1 construct: gene SLCO1B3
T1 sequence (Q9NPD5 1-702): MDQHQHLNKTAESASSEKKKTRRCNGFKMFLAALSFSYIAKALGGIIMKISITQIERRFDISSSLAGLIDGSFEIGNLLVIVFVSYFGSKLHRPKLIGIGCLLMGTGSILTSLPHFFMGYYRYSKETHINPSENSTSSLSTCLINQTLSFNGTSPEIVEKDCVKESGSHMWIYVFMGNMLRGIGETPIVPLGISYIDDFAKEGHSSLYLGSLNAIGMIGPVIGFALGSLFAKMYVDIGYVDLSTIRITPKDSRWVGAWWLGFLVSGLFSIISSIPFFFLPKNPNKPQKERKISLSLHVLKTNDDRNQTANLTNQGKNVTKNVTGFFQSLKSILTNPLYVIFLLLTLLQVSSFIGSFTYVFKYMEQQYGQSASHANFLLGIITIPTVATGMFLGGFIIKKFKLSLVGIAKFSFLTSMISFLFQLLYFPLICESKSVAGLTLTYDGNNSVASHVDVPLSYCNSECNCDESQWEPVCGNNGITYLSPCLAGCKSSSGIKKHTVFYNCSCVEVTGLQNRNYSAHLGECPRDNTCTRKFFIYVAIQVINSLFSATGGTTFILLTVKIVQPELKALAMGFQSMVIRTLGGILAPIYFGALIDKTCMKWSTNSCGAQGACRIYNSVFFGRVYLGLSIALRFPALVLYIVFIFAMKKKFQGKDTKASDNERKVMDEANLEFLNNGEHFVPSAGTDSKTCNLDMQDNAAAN

rOATP1B2 = target: T2, rOATP1B2 (Rattus norvegicus, UniProt Q9QZX8); assay: cell-based
T2 construct: gene Slco1b2
T2 sequence (Q9QZX8 1-687): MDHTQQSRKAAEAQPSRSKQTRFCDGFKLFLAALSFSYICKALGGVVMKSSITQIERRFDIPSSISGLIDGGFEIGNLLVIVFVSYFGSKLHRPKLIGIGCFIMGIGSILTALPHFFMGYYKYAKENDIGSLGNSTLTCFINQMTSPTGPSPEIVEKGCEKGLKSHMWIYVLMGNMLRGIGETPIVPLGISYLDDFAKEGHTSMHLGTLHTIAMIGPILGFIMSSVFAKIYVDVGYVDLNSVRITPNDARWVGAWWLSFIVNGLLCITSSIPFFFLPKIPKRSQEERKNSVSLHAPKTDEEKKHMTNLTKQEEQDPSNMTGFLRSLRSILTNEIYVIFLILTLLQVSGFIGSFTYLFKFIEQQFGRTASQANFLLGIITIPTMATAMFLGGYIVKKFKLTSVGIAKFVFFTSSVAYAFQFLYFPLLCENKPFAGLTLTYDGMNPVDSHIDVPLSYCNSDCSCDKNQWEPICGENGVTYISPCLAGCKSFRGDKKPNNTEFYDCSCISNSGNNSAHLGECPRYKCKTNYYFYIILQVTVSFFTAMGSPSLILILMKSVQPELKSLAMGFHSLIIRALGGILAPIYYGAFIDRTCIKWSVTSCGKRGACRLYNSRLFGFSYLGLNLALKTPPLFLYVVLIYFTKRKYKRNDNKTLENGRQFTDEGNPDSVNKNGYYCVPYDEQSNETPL

Question: What does the source list for `O=C(O)[C@H]1O[C@@H](Oc2cc3oc(-c4ccc(O)cc4)cc(=O)c3c(O)c2O)[C@H](O)[C@@H](O)[C@@H]1O` [Scutellarin]?
Answer: IC50 (hOATP1B3): 45.5 ± 6.67 µM; IC50 (rOATP1B2): 27.6 ± 3.97 µM
